In one experiment the test system is embryonic rat cortices. In words: Acute glutamate neurotoxicity in cortical cell cultures (lactate dehydrogenase release). In kind it is cell-based. The conditions noted are these: neuronal degeneration, 500 µM glutamate for 5 to 30 minutes at room temperature, lactate dehydrogenase in supernatant after overnight at 37°C, read-out: IC₅₀. As to the method: 2. Acute Glutamate Neurotoxicity
Single cell suspensions were prepared from embryonic rat cortices (E16-17) by digestion with dispase 2.4 U/ml (BOEHRINGER) and subsequent trituration with fire polished pasteur pipettes. The cells were then plated on poly-D-lysine (SIGMA) coated 96 well microtiter plates (NUNC, 10⁵ cells/well) in a total volume of 100 µl Dulbeccos modified essential medium (DMEM, GIBCO) supplemented with 10% horse serum and penicillin/streptomycin (SIGMA). 5 days later, non-neuronal cell division was halted by exposure to […] combined with a 50% exchange of culture medium. The cultures were used for neurotoxicity assays from 8-12 days in vitro.
Acute glutamate toxicity was performed according to D.W. Choi. J. Koh and S. Peters, J. Neurosci. 8 (1988) 185-196, in 100 µl of a control salt solution (CSS: 120 mM NaCl, 5.4 mM KCl, 0.8 mm MgCl₂, 1.8 mM CaCl₂, 25 mM Tris HCl (pH 7.4 at 25°C) and 15 mM glycose) with 500 µM glutamate for 5 to 30 minutes at room temperature with or without addition of substances to be tested.
After washing, the cultures were maintained in 100 µl CSS overnight at 37°C. For quantitation of neurodegeneration, lactate dehydrogenase was measured in the cell culture supernatant as described by J.G. Klingman, D.M. Hartley and D.W. Choi, J. Neurosci. Meth. 31 (1990) 47-51 using a BIOMEK workstation (BECKMAN). […] From dose response curves IC₅₀ values were calculated.

The next experiment concerns the target NMDA receptor. The experiment is described as follows: 3H-MK 801 (dizocilpine) binding in vitro, rat brain membranes. The conditions noted are these: displacement of 5 nM ³H-MK 801, washed rat brain membranes; high affinity values determined from biphasic displacement curves; read-out: IC₅₀. As to the method:
1. ^3H-MK 801 (dizocilpine) binding in vitro
³H-MK 801 binding was performed as described in Ransom, R.W. and Stec, N.L., J. Neurochem. 51 (1988) 830-836, with extensively washed rat brain membranes prepared according to the following scheme. Frozen whole rat brain was thawed and cerebellum and medulla oblongata were removed on ice. The tissue was then homogenized with an Ultra Turrax (maximal energy) during 30 sec at 4°C in 50 volumes of Tris·HC1 (5mM) with ethylenediaminetetraacetic acid (EDTA) disodium (10 mM, pH = 7.4). The homogenate was centrifuged at 48'000 x g for 10 min. The pellet was rehomogenized with the same volume of the same buffer and the homogenate was then incubated at 37°C for 10 min. After centrifugation the pellet was rehomogenized under the same conditions and frozen at -80°C in 35 ml fractions for at least 16 hours and not more than 2 weeks.
On the day of experiment, the homogenate was thawed 15 minutes at 37°C and centrifuged as above. The pellet was rehomogenized in 25 volumes of Tris·HC1 buffer (5mM, pH = 7.4) and the homogenate was recentrifuged. This procedure was repeated twice. The final pellet was rehomogenized in 25 volumes of Tris·HC1 buffer (5 mM, pH = 7.4) related to the original wet weight and used as such in the assay. Final concentration in the assay was 20 mg/ml.
300 µl of tracer solution (final concentration 5 nM ³H-MK 801) in Tris·HC1 buffer (5 mM, pH 7.4) were incubated with 100 µl of test solution (100 µl of Tris·HC1 buffer for the total binding or 100 µl of buffer plus N-(1-(2-thienyl)cyclohexyl)piperidine (TCP) (final concentration 0.1 µM) for non specific binding). Glutamate, glycine and spermidine (final concentrations 1nM) were added together in 100 µl volume. 500 µl of homogenate (final concentration 20 mg/ml) were then added in the plastic reaction tubes. After 2 hours of incubation at room temperature, the suspension was filtered (Whatmann GF/B, presoaked in 0.05% polyethylenimine for 2 hours) and washed 5 times with 3 ml of cold buffer. The air-dried (3 min) filters were counted in 10 ml of Ultima-gold (Packard) after agitation (10 min.) and standing for 2 hours at 3°C in vials.
These are high affinity values determined from biphasic displacement curves.

With `CC(Cc1ccc(O)cc1)C(C)N1CCC(Cc2ccccc2)CC1` (racemic) [Ex. 10, rac.-4-[2-Methyl-3-[4-(phenylmethyl)-1-piperidinyl]butyl]phenol], the IC50 amounted to 120 nM in the experiment on embryonic rat cortices and 150 nM at NMDA receptor.
Turning to `C[C@@H](CN1CCC(Cc2ccccc2)CC1)[C@@H](O)c1ccc(O)cc1` (relative stereo) [Ex. 8, (R*,S*)-rac.-α-(4-hydroxyphenyl)-β-methyl-4-(phenylmethyl)-1-piperidinepropanol], the IC50 in the experiment on embryonic rat cortices turned out to be 40 nM; on NMDA receptor, 5 nM.
Consider `C[C@@H](CN1CCC(Cc2ccccc2)CC1)[C@@H](O)c1ccc(OCc2ccccc2)cc1` (relative stereo) [Ex. 7, (R*,S*)-rac.-β-Methyl-α-[4-(phenylmethoxy)phenyl]-4-(phenylmethyl)-1-piperidinepropanol], for which the results for the IC50 with embryonic rat cortices and on NMDA receptor were 64000 nM and 1300 nM, respectively.
As to `C[C@@H](CCN1CCC(Cc2ccccc2)CC1)[C@@H](O)c1ccc(O)cc1` (relative stereo) [Ex. 5, (R*,S*)-rac.-α-(4-Hydroxyphenyl)-β-methyl-4-(phenylmethyl)-1-piperidinebutanol], the figures for the IC50 in the experiment with embryonic rat cortices and on NMDA receptor were 1900 nM and 300 nM, respectively.
Taken in the same sequence, the figures for `C[C@H](CN1CCC(Cc2ccccc2)CC1)[C@@H](O)c1ccc(O)cc1` (relative stereo) [Ex. 9, (R*,R*)-rac.-α-(4-Hydroxyphenyl)-β-methyl-4-(phenylmethyl)-1-piperidinepropanol] were 110 nM and 6 nM.
On to `CC(Cc1ccccc1)CN1CCC(Cc2ccccc2)CC1` (racemic) [Ex. 21, rac.-1-(2-Methyl-3-phenylpropyl)-4-(phenylmethyl)piperidine], for which the IC50 in the experiment with embryonic rat cortices turned out to be 13000 nM; at NMDA receptor, 1400 nM.
For `C[C@@H](CN1CCC(Cc2ccccc2)CC1)C(=O)c1ccc(OCc2ccccc2)cc1` [Ex. 12, (S)-2-Methyl-1-[4-(phenylmethoxy)phenyl]-3-[4-(phenylmethyl)-1-piperidinyl]-1-propanone], the IC50 in the experiment on embryonic rat cortices amounted to 66000 nM; at NMDA receptor, 900 nM.
As to `C[C@@H](CN1CCC(Cc2ccccc2)CC1)[C@@H](O)c1ccc(O)cc1` [Ex. 15, [R-(R*S*)]-α-(4-Hydroxyphenyl)-β-methyl-4-(phenylmethyl)-1-piperidinepropanol], the IC50 came to 60 nM with embryonic rat cortices and 1.3 nM at NMDA receptor.
With `CC(CCN1CCC(Cc2ccccc2)CC1)Cc1ccc(O)cc1` (racemic) [Ex. 6, rac.-4-[2-Methyl-4-[4-(phenylmethyl)-1-piperidinyl]butyl]phenol], the figures for the IC50 with embryonic rat cortices and at NMDA receptor were 3500 nM and 530 nM, respectively.
Taken in the same sequence, the figures for `C[C@H](CN1CCC(Cc2ccccc2)CC1)[C@H](O)c1ccc(O)cc1` [Ex. 16, [S-(R*S*)]-α-(4-Hydroxyphenyl)-β-methyl]-4-(phenylmethyl)-1-piperidinepropanol] were 80 nM and 3 nM.

(Values after patent publication EP0648744A1, “Phenylalkanolamine derivatives as antagonists of the NMDA receptor” (F. HOFFMANN-LA ROCHE AG, priority 1993, dated 1995).)
